Laboratory results: the supplement of paper PMC10307832

How the values were obtained:
Experiment in all cases: relative viability (nuclei count vs DMSO), 5 days (fraction); higher = more cells survive
NCI-H2347 = test system: NCI-H2347
Method in brief: (§1)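 Five library-drug doses in √10 steps were combined with a fixed anchor-drug dose, or a single drug was given alone, by pin tool to lung cancer cell lines in 1536-well plates the day after seeding. Nuclei were stained and counted after 5 days. Relative viability is the nuclei count in treated wells over that in vehicle wells, taken as the median of duplicate plates.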

EPLC-272H = test system: EPLC-272H
Method in brief: as §1

H3255 = test system: H3255
Method in brief: as §1

NCI-H650 = test system: NCI-H650
Method in brief: as §1

201T = test system: 201T
Method in brief: as §1

COR-L 105 = test system: COR-L 105
Method in brief: as §1

NCI-H2087 = test system: NCI-H2087
Method in brief: as §1

NCI-H2126 = test system: NCI-H2126
Method in brief: as §1

NCI-H2405 = test system: NCI-H2405
Method in brief: as §1

HCC-78 = test system: HCC-78
Method in brief: as §1

LC-2-ad = test system: LC-2-ad
Method in brief: as §1

NCI-H1666 = test system: NCI-H1666
Method in brief: as §1

LCLC-97TM1 = test system: LCLC-97TM1
Method in brief: as §1

NCI-H23 = test system: NCI-H23
Method in brief: as §1

NCI-H322M = test system: NCI-H322M
Method in brief: as §1

HCC-827 = test system: HCC-827
Method in brief: as §1

NCI-H1915 = test system: NCI-H1915
Method in brief: as §1

NCI-H520 = test system: NCI-H520
Method in brief: as §1

NCI-H661 = test system: NCI-H661
Method in brief: as §1

PC-14 = test system: PC-14
Method in brief: as §1

RERF-LC-KJ = test system: RERF-LC-KJ
Method in brief: as §1

NCI-H647 = test system: NCI-H647
Method in brief: as §1

C[C@@H]1CN(CC(=O)Nc2ccc3c(c2)Cc2cccc(-c4cc(=O)cc(N5CCOCC5)o4)c2S3)C[C@H](C)O1 + Cc1nc(NC(=O)N2CCC[C@H]2C(N)=O)sc1-c1ccnc(C(C)(C)C(F)(F)F)c1 [Alpelisib] (partner 2 µM)
relative viability (NCI-H2347; first compound 0.04 µM): 0.981 | relative viability (NCI-H2347; first compound 0.1265 µM): 1.09 | relative viability (NCI-H2347; first compound 0.4 µM): 1.08 | relative viability (NCI-H2347; first compound 4 µM): 0.979 | relative viability (EPLC-272H; first compound 0.04 µM): 0.928 | relative viability (EPLC-272H; first compound 0.1265 µM): 0.806 | relative viability (EPLC-272H; first compound 0.4 µM): 0.857 | relative viability (EPLC-272H; first compound 4 µM): 1.1 | relative viability (H3255; first compound 0.04 µM): 0.569 | relative viability (H3255; first compound 0.1265 µM): 0.659 | relative viability (H3255; first compound 0.4 µM): 0.549 | relative viability (H3255; first compound 4 µM): 0.611 | relative viability (NCI-H650; first compound 0.04 µM): 0.949 | relative viability (NCI-H650; first compound 0.1265 µM): 1.06 | relative viability (NCI-H650; first compound 0.4 µM): 1.15 | relative viability (NCI-H650; first compound 4 µM): 0.895 | relative viability (201T; first compound 0.04 µM): 1.04 | relative viability (201T; first compound 0.1265 µM): 1.02 | relative viability (201T; first compound 0.4 µM): 0.943 | relative viability (201T; first compound 4 µM): 0.95 | relative viability (COR-L 105; first compound 0.04 µM): 1.09 | relative viability (COR-L 105; first compound 0.1265 µM): 0.998 | relative viability (COR-L 105; first compound 0.4 µM): 1.04 | relative viability (COR-L 105; first compound 4 µM): 0.896 | relative viability (NCI-H2087; first compound 0.04 µM): 1.49 | relative viability (NCI-H2087; first compound 0.1265 µM): 1.2 | relative viability (NCI-H2087; first compound 0.4 µM): 1.2 | relative viability (NCI-H2087; first compound 4 µM): 0.837 | relative viability (NCI-H2126; first compound 0.04 µM): 0.807 | relative viability (NCI-H2126; first compound 0.1265 µM): 0.765 | relative viability (NCI-H2126; first compound 0.4 µM): 0.738 | relative viability (NCI-H2126; first compound 4 µM): 0.762 | relative viability (NCI-H2405; first compound 0.04 µM): 0.899 | relative viability (NCI-H2405; first compound 0.1265 µM): 0.818 | relative viability (NCI-H2405; first compound 0.4 µM): 0.769 | relative viability (NCI-H2405; first compound 4 µM): 0.698 | relative viability (HCC-78; first compound 0.04 µM): 0.303 | relative viability (HCC-78; first compound 0.1265 µM): 0.3 | relative viability (HCC-78; first compound 0.4 µM): 0.278 | relative viability (HCC-78; first compound 4 µM): 0.33 | relative viability (LC-2-ad; first compound 0.04 µM): 1.02 | relative viability (LC-2-ad; first compound 0.1265 µM): 0.864 | relative viability (LC-2-ad; first compound 0.4 µM): 0.77 | relative viability (LC-2-ad; first compound 4 µM): 0.848 | relative viability (NCI-H1666; first compound 0.04 µM): 1.17 | relative viability (NCI-H1666; first compound 0.1265 µM): 1.12 | relative viability (NCI-H1666; first compound 0.4 µM): 0.964 | relative viability (NCI-H1666; first compound 4 µM): 0.654 | relative viability (LCLC-97TM1; first compound 0.1265 µM): 0.225 | relative viability (LCLC-97TM1; first compound 0.4 µM): 0.237 | relative viability (LCLC-97TM1; first compound 4 µM): 0.238 | relative viability (NCI-H23; first compound 0.04 µM): 0.715 | relative viability (NCI-H23; first compound 0.1265 µM): 0.639 | relative viability (NCI-H23; first compound 0.4 µM): 0.624 | relative viability (NCI-H23; first compound 4 µM): 0.727 | relative viability (NCI-H322M; first compound 0.04 µM): 0.844 | relative viability (NCI-H322M; first compound 0.1265 µM): 0.833 | relative viability (NCI-H322M; first compound 0.4 µM): 0.832 | relative viability (NCI-H322M; first compound 4 µM): 0.839 | relative viability (HCC-827; first compound 0.04 µM): 1.02 | relative viability (HCC-827; first compound 0.1265 µM): 0.988 | relative viability (HCC-827; first compound 0.4 µM): 0.938 | relative viability (HCC-827; first compound 4 µM): 0.978 | relative viability (NCI-H1915; first compound 0.04 µM): 1.02 | relative viability (NCI-H1915; first compound 0.1265 µM): 1.08 | relative viability (NCI-H1915; first compound 0.4 µM): 1.1 | relative viability (NCI-H1915; first compound 4 µM): 1.04 | relative viability (NCI-H520; first compound 0.04 µM): 0.974 | relative viability (NCI-H520; first compound 0.1265 µM): 0.917 | relative viability (NCI-H520; first compound 0.4 µM): 0.535 | relative viability (NCI-H520; first compound 4 µM): 0.854 | relative viability (NCI-H661; first compound 0.1265 µM): 0.741 | relative viability (NCI-H661; first compound 0.4 µM): 0.526 | relative viability (NCI-H661; first compound 4 µM): 0.489 | relative viability (PC-14; first compound 0.04 µM): 0.961 | relative viability (PC-14; first compound 0.1265 µM): 0.986 | relative viability (PC-14; first compound 0.4 µM): 0.9 | relative viability (PC-14; first compound 4 µM): 0.855 | relative viability (RERF-LC-KJ; first compound 0.04 µM): 0.869 | relative viability (RERF-LC-KJ; first compound 0.1265 µM): 0.764 | relative viability (RERF-LC-KJ; first compound 0.4 µM): 0.774 | relative viability (RERF-LC-KJ; first compound 4 µM): 0.792 | relative viability (NCI-H647; first compound 0.04 µM): 1.26 | relative viability (NCI-H647; first compound 0.1265 µM): 1.08 | relative viability (NCI-H647; first compound 0.4 µM): 1.08 | relative viability (NCI-H647; first compound 4 µM): 0.766
